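Dose response: 5 concentrations. Exposure: 48 h. Format: 96-well plates. Endpoint: linear interpolation; highest concentration if not reached. GI50: concentration for 50% inhibition of growth.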 Calls of active or inactive are those of the source. Rule as the data show it: active = GI50 up to about 1.1 µM and inactive = higher.
Legend:
Test in all cases: inhibition of tumour cell growth, NCI panel, 48 h
[1] = system: HT-29
[2] = system: A549
[3] = system: T47D
[4] = system: MCF7
[5] = system: SW-620
[6] = system: CAKI-1
[7] = system: SK-MEL-28
[8] = system: MDA-MB-231
[9] = system: HL-60
[10] = system: EKVX
[11] = system: SK-OV-3
[12] = system: K562
[13] = system: UACC-62
[14] = system: SK-MEL-5
[15] = system: SN12C
[16] = system: PC-3
[17] = system: Malme-3M
[18] = system: IGROV-1
[19] = system: RPMI-8226
[20] = system: DU-145
[21] = system: MOLT-4
[22] = system: SF-295
[23] = system: RXF 393
[24] = system: NCI-H23
[25] = system: 786-0
[26] = system: MDA-N
[27] = system: KM12
[28] = system: COLO 205
[29] = system: M14
[30] = system: TK-10
[31] = system: SNB-75
[32] = system: CCRF-CEM
[33] = system: HCT-15
[34] = system: HCC 2998
[35] = system: OVCAR-8
[36] = system: UACC-257
[37] = system: SR
[38] = system: HOP-62
[39] = system: NCI-H460
[40] = system: ACHN
[41] = system: SF-268
[42] = system: MDA-MB-435
[43] = system: NCI-H522
[44] = system: NCI/ADR-RES
[45] = system: LOX IMVI
[46] = system: SF-539
[47] = system: U-251
[48] = system: OVCAR-5
[49] = system: HOP-92
[50] = system: NCI-H226
[51] = system: HCT-116
[52] = system: Hs-578T
[53] = system: OVCAR-3
[54] = system: A498
[55] = system: UO-31

Cc1ccc(S(=O)(=O)OC2C(O)C(O)OC2C(c2cc(O)c3c(c2O)C(=O)c2ccccc2C3=O)c2cc(O)c3c(c2O)C(=O)c2ccccc2C3=O)cc1 (stereo not given)
GI50 [1]: 5.24 µM (inactive) | GI50 [2]: 3.54 µM (inactive) | GI50 [3]: 5.07 µM (inactive) | GI50 [4]: 3.44 µM (inactive) | GI50 [5]: 4.65 µM (inactive) | GI50 [6]: 2.74 µM (inactive) | GI50 [7]: 7.26 µM (inactive) | GI50 [8]: 4.06 µM (inactive) | GI50 [9]: 1.87 µM (inactive) | GI50 [10]: 3.33 µM (inactive) | GI50 [11]: 6.25 µM (inactive) | GI50 [12]: 3.24 µM (inactive) | GI50 [13]: 4.38 µM (inactive) | GI50 [14]: 3.43 µM (inactive) | GI50 [15]: 3.65 µM (inactive) | GI50 [16]: 2.9 µM (inactive) | GI50 [17]: 1.28 µM (inactive) | GI50 [18]: 7.1 µM (inactive) | GI50 [19]: 2.64 µM (inactive) | GI50 [20]: 5.58 µM (inactive) | GI50 [21]: 3.31 µM (inactive) | GI50 [22]: 3.76 µM (inactive) | GI50 [23]: 5.36 µM (inactive) | GI50 [24]: 2.99 µM (inactive) | GI50 [25]: 4.94 µM (inactive) | GI50 [26]: 3.61 µM (inactive) | GI50 [27]: 3.42 µM (inactive) | GI50 [28]: 2.2 µM (inactive) | GI50 [29]: 2.74 µM (inactive) | GI50 [30]: 8.71 µM (inactive) | GI50 [31]: 4.09 µM (inactive) | GI50 [32]: 3.89 µM (inactive) | GI50 [33]: 3.4 µM | GI50 [34]: 4.09 µM (inactive) | GI50 [35]: 3.44 µM (inactive) | GI50 [36]: 3.01 µM (inactive) | GI50 [37]: 3.08 µM (inactive) | GI50 [38]: 4.11 µM (inactive)

COc1cc(C(C)(C)C)c(OC(=O)/C=C/C(=O)O/C=C/[N+](=O)[O-])c(C(C)(C)C)c1
GI50 [1]: 21.1 µM (inactive) | GI50 [39]: 66.4 µM (inactive) | GI50 [40]: 30.5 µM (inactive) | GI50 [2]: 21.4 µM (inactive) | GI50 [41]: 30.2 µM (inactive) | GI50 [3]: 41.8 µM (inactive) | GI50 [42]: 21.2 µM (inactive) | GI50 [4]: 13.5 µM (inactive) | GI50 [43]: 29.9 µM (inactive) | GI50 [5]: 28.4 µM (inactive) | GI50 [44]: 23.4 µM (inactive) | GI50 [6]: 23.5 µM (inactive) | GI50 [45]: 24.2 µM (inactive) | GI50 [46]: 34.4 µM (inactive) | GI50 [47]: 47.1 µM (inactive) | GI50 [8]: 33.9 µM (inactive) | GI50 [9]: 0.324 µM (active) | GI50 [10]: 69 µM (inactive) | GI50 [48]: > 100 µM (inactive) | GI50 [11]: > 100 µM (inactive) | GI50 [12]: > 100 µM (inactive) | GI50 [13]: 33.2 µM (inactive) | GI50 [14]: 35.3 µM (inactive) | GI50 [15]: 41.3 µM (inactive) | GI50 [18]: 69.8 µM (inactive) | GI50 [19]: > 100 µM (inactive) | GI50 [20]: 38.2 µM (inactive) | GI50 [21]: > 100 µM (inactive) | GI50 [22]: > 100 µM (inactive) | GI50 [23]: 27.6 µM (inactive) | GI50 [24]: 19.4 µM (inactive) | GI50 [25]: 34.4 µM (inactive) | GI50 [26]: 44.7 µM (inactive) | GI50 [27]: 16.8 µM (inactive) | GI50 [28]: 42.9 µM (inactive) | GI50 [49]: > 100 µM (inactive) | GI50 [50]: 28.1 µM (inactive) | GI50 [29]: 21.1 µM (inactive) | GI50 [51]: 46.5 µM (inactive) | GI50 [30]: 85.3 µM (inactive) | GI50 [52]: 28.6 µM (inactive) | GI50 [31]: > 100 µM (inactive) | GI50 [53]: 32.7 µM (inactive) | GI50 [32]: 10.2 µM (inactive) | GI50 [54]: 44.4 µM (inactive) | GI50 [33]: 17.8 µM | GI50 [34]: > 100 µM (inactive) | GI50 [35]: 36.4 µM (inactive) | GI50 [36]: 47.6 µM (inactive) | GI50 [37]: 63.8 µM (inactive) | GI50 [38]: > 100 µM (inactive) | GI50 [55]: 28.1 µM (inactive)

Source: ChEMBL document CHEMBL1201862, “PubChem BioAssay data set” (2004)
